ChEMBL document CHEMBL3734705, “Synthesis and in vitro cytotoxicity of novel C-12 substituted-14-deoxy-andrographolide derivatives as potent anti-cancer agents” (2015)

Tests used:
[1] = Cytotoxicity against human MOLT4 cells assessed as growth level at 10 uM after 48 hrs by SRB assay; format: functional, MOLT-4
[2] = Cytotoxicity against human HOP62 cells assessed as growth level at 10 uM after 48 hrs by SRB assay; format: functional, HOP-62
NCI-H226 = assay: Cytotoxicity against human NCI-H226 cells assessed as growth level at 10 uM after 48 hrs by SRB assay; format: functional
NCI-H23 = assay: Cytotoxicity against human NCI-H23 cells assessed as growth level at 10 uM after 48 hrs by SRB assay; format: functional
NCI-H460 [3] = assay: Cytotoxicity against human NCI-H460 cells assessed as growth level at 10 uM after 48 hrs by SRB assay; format: functional
[4] = Cytotoxicity against human COLO205 cells assessed as growth level at 10 uM after 48 hrs by SRB assay; format: functional, COLO 205
KM12 = assay: Cytotoxicity against human KM12 cells assessed as growth level at 10 uM after 48 hrs by SRB assay; format: functional
[5] = Cytotoxicity against human SW620 cells assessed as growth level at 10 uM after 48 hrs by SRB assay; format: functional, SW-620
SK-MEL-5 [6] = assay: Cytotoxicity against human SK-MEL-5 cells assessed as growth level at 10 uM after 48 hrs by SRB assay; format: functional
[7] = Cytotoxicity against human UACC257 cells assessed as growth level at 10 uM after 48 hrs by SRB assay; format: functional, UACC-257
[8] = Cytotoxicity against human IGROV1 cells assessed as growth level at 10 uM after 48 hrs by SRB assay; format: functional, IGROV-1
[9] = Cytotoxicity against human OVCAR3 cells assessed as growth level at 10 uM after 48 hrs by SRB assay; format: functional, OVCAR-3
[10] = Cytotoxicity against human OVCAR5 cells assessed as growth level at 10 uM after 48 hrs by SRB assay; format: functional, OVCAR-5
[11] = Cytotoxicity against human OVCAR8 cells assessed as growth level at 10 uM after 48 hrs by SRB assay; format: functional, OVCAR-8
786-0 = assay: Cytotoxicity against human 786-0 cells assessed as growth level at 10 uM after 48 hrs by SRB assay; format: functional
A498 = assay: Cytotoxicity against human A498 cells assessed as growth level at 10 uM after 48 hrs by SRB assay; format: functional
ACHN = assay: Cytotoxicity against human ACHN cells assessed as growth level at 10 uM after 48 hrs by SRB assay; format: functional
SN12C = assay: Cytotoxicity against human SN12C cells assessed as growth level at 10 uM after 48 hrs by SRB assay; format: functional
[12] = Cytotoxicity against human TK10 cells assessed as growth level at 10 uM after 48 hrs by SRB assay; format: functional, TK-10
[13] = Cytotoxicity against human UO31 cells assessed as growth level at 10 uM after 48 hrs by SRB assay; format: functional, UO-31
[14] = Cytotoxicity against human PC3 cells assessed as growth level at 10 uM after 48 hrs by SRB assay; format: functional, PC-3
MDA-MB-231 = assay: Cytotoxicity against human MDA-MB-231 cells assessed as growth level at 10 uM after 48 hrs by SRB assay; format: functional
[15] = Cytotoxicity against human Hs578T cells assessed as growth level at 10 uM after 48 hrs by SRB assay; format: functional, Hs-578T
[16] = Cytotoxicity against human HL-60(TB) cells assessed as growth inhibition at 10 uM after 48 hrs by SRB assay; format: functional; conditions: HL-60, 48 h, read-out: GI
[17] = Cytotoxicity against human MOLT4 cells assessed as growth inhibition at 10 uM after 48 hrs by SRB assay; format: functional; conditions: MOLT-4, 48 h, read-out: GI
SR = assay: Cytotoxicity against human SR cells assessed as growth inhibition at 10 uM after 48 hrs by SRB assay; format: functional; conditions: read-out: GI
A549 = assay: Cytotoxicity against human A549 cells assessed as growth inhibition at 10 uM after 48 hrs by SRB assay; format: functional; conditions: A549, 48 h, read-out: GI
NCI-H460 [18] = assay: Cytotoxicity against human NCI-H460 cells assessed as growth inhibition at 10 uM after 48 hrs by SRB assay; format: functional; conditions: NCI-H460, 48 h, read-out: GI
NCI-H522 = assay: Cytotoxicity against human NCI-H522 cells assessed as growth inhibition at 10 uM after 48 hrs by SRB assay; format: functional; conditions: NCI-H522, 48 h, read-out: GI
[19] = Cytotoxicity against human COLO205 cells assessed as growth inhibition at 10 uM after 48 hrs by SRB assay; format: functional; conditions: COLO 205, 48 h, read-out: GI
[20] = Cytotoxicity against human SW620 cells assessed as growth inhibition at 10 uM after 48 hrs by SRB assay; format: functional; conditions: SW-620, 48 h, read-out: GI
[21] = Cytotoxicity against human SNB75 cells assessed as growth inhibition at 10 uM after 48 hrs by SRB assay; format: functional; conditions: SNB-75, 48 h, read-out: GI
U-251 = assay: Cytotoxicity against human U251 cells assessed as growth inhibition at 10 uM after 48 hrs by SRB assay; format: functional; conditions: U-251, 48 h, read-out: GI
Malme-3M = assay: Cytotoxicity against human MALME-3M cells assessed as growth inhibition at 10 uM after 48 hrs by SRB assay; format: functional; conditions: read-out: GI
M14 = assay: Cytotoxicity against human M14 cells assessed as growth inhibition at 10 uM after 48 hrs by SRB assay; format: functional; conditions: M14, 48 h, read-out: GI
SK-MEL-5 [22] = assay: Cytotoxicity against human SK-MEL-5 cells assessed as growth inhibition at 10 uM after 48 hrs by SRB assay; format: functional; conditions: SK-MEL-5, 48 h, read-out: GI
[23] = Cytotoxicity against human IGROV1 cells assessed as growth inhibition at 10 uM after 48 hrs by SRB assay; format: functional; conditions: IGROV-1, 48 h, read-out: GI
[24] = Cytotoxicity against human OVCAR4 cells assessed as growth inhibition at 10 uM after 48 hrs by SRB assay; format: functional; conditions: OVCAR-4, 48 h, read-out: GI
[25] = Cytotoxicity against human OVCAR8 cells assessed as growth inhibition at 10 uM after 48 hrs by SRB assay; format: functional; conditions: OVCAR-8, 48 h, read-out: GI
[26] = Cytotoxicity against human TK10 cells assessed as growth inhibition at 10 uM after 48 hrs by SRB assay; format: functional; conditions: TK-10, 48 h, read-out: GI
MCF7 = assay: Cytotoxicity against human MCF7 cells assessed as growth inhibition at 10 uM after 48 hrs by SRB assay; format: functional; conditions: MCF7, 48 h, read-out: GI
[27] = Cytotoxicity against human Hs578T cells assessed as growth inhibition at 10 uM after 48 hrs by SRB assay; format: functional; conditions: Hs-578T, read-out: GI
CCRF-CEM = assay: Cytotoxicity against human CCRF-CEM cells assessed as growth level at 10 uM after 48 hrs by SRB assay; format: functional
K562 = assay: Cytotoxicity against human K562 cells assessed as growth level at 10 uM after 48 hrs by SRB assay; format: functional

C=C1CC[C@@H]2[C@](C)(COC(C)=O)[C@H](OC(C)=O)CC[C@@]2(C)[C@@H]1CC(NCCCCCCCC)C1=CCOC1=O (mixture of isomers)
Activity [1]: 36.47% | Activity [2]: 91.97% | Activity (NCI-H226): 65.82% | Activity (NCI-H23): 70.76% | Activity (NCI-H460 [3]): 52.67% | Activity [4]: 70.75% | Activity (KM12): 68.58% | Activity [5]: 72.43% | Activity (SK-MEL-5 [6]): 50.57% | Activity [7]: 61.1% | Activity [8]: 70.18% | Activity [9]: 48.95% | Activity [10]: 93.23% | Activity [11]: 70.96% | Activity (786-0): 79.87% | Activity (A498): 64.34% | Activity (ACHN): 85.98% | Activity (SN12C): 73.09% | Activity [12]: 82.68% | Activity [13]: 56.13% | Activity [14]: 33.69% | Activity (MDA-MB-231): 70.83% | Activity [15]: 83.08% | inhibition of growth at 10 µM [16]: 41.1% | inhibition of growth at 10 µM [17]: 63.5% | inhibition of growth at 10 µM (SR): 63% | inhibition of growth at 10 µM (A549): 32.8% | inhibition of growth at 10 µM (NCI-H460 [18]): 47.3% | inhibition of growth at 10 µM (NCI-H522): 35.6% | inhibition of growth at 10 µM [19]: 29.2% | inhibition of growth at 10 µM [20]: 27.6% | inhibition of growth at 10 µM [21]: 25.4% | inhibition of growth at 10 µM (U-251): 44.5% | inhibition of growth at 10 µM (Malme-3M): 15.8% | inhibition of growth at 10 µM (M14): 24.1% | inhibition of growth at 10 µM (SK-MEL-5 [22]): 49.4% | inhibition of growth at 10 µM [23]: 29.8% | inhibition of growth at 10 µM [24]: 47.7% | inhibition of growth at 10 µM [25]: 29% | inhibition of growth at 10 µM [26]: 17.3% | inhibition of growth at 10 µM (MCF7): 31.2% | inhibition of growth at 10 µM [27]: 16.9% | Activity (CCRF-CEM): 47.26% | Activity (K562): 34.66%

C=C1CC[C@@H]2[C@](C)(COC(C)=O)[C@H](OC(C)=O)CC[C@@]2(C)[C@@H]1CC(NCc1cccc(Cl)c1)C1=CCOC1=O (mixture of isomers)
Activity [1]: 21.89% | Activity [2]: 56% | Activity (NCI-H226): 46.32% | Activity (NCI-H23): 52.71% | Activity (NCI-H460 [3]): 34.79% | Activity [4]: 36.77% | Activity (KM12): 46.76% | Activity [5]: 38.27% | Activity [7]: 25.21% | Activity [8]: 64.14% | Activity [9]: 47.44% | Activity [10]: 99.69% | Activity [11]: 42.73% | Activity (786-0): 62% | Activity (A498): 64.78% | Activity (ACHN): 41.58% | Activity (SN12C): 62.07% | Activity [12]: 63.29% | Activity [13]: 46.94% | Activity [14]: 30.08% | Activity (MDA-MB-231): 65% | Activity [15]: 94.35% | inhibition of growth at 10 µM [16]: 78.4% | inhibition of growth at 10 µM [17]: 78.1% | inhibition of growth at 10 µM (SR): 88.5% | inhibition of growth at 10 µM (A549): 45.8% | inhibition of growth at 10 µM (NCI-H460 [18]): 65.2% | inhibition of growth at 10 µM (NCI-H522): 47.5% | inhibition of growth at 10 µM [19]: 63.2% | inhibition of growth at 10 µM [20]: 61.7% | inhibition of growth at 10 µM [21]: 14.1% | inhibition of growth at 10 µM (U-251): 69.1% | inhibition of growth at 10 µM (Malme-3M): 23.9% | inhibition of growth at 10 µM (M14): 45% | inhibition of growth at 10 µM [23]: 35.9% | inhibition of growth at 10 µM [24]: 49.6% | inhibition of growth at 10 µM [25]: 57.3% | inhibition of growth at 10 µM [26]: 36.7% | inhibition of growth at 10 µM (MCF7): 57% | inhibition of growth at 10 µM [27]: 5.65% | Activity (CCRF-CEM): 42.29% | Activity (K562): 18.48%
